Measured values reported in US20260042831A1, “METHODS OF TREATING SARCOIDOSIS WITH A TNF-A ANTIBODY AND ASSOCIATED COMPOSITIONS AND METHODS” (XENTRIA, INC., priority 2022, published 2026).
Entries after “also recorded” stand apart in the source; their conditions may differ. Like-named read-outs stand apart in the source and are kept apart here.

Key:
[1] = tested on: chronic refractory pulmonary sarcoidosis; details: low- and high-dose IV infusion, at 24 weeks; cited from earlier work
[2] = tested on: transgenic TC (TgTC) mice (rheumatoid arthritis model); test: In vivo primary pharmacology: arthritis scores in TgTC mice; design: species or system mouse; details: for arthritis scores compared to vehicle control: Day 29 and Day 43 (p<0.01)
[3] = tested on: TNFα, IL-1β, IFNγ release; test: In vitro granuloma model of sarcoidosis: supernatant cytokine release (ELISA); details: 30 minutes pre-treatment, 7 days following PPD
Description: (§1) PMBCs were exposed to either uncoated bead (UNC) or Mycobacterium tuberculosis (M. tb) antigen PPD-coated beads for 7 days. […] Following imaging, supernatant samples were collected and quantified for extracellular cytokine release using an enzyme-linked immunosorbent assay.

[4] = tested on: normal human tissues and human sarcoidosis tissue; test: Tissue cross-reactivity study (GLP, immunohistochemistry on cryosections); type: binding; details: for Tissues Showing Evidence of Staining: Sp2/0-Ag14 cells: negative control; for Tissues Showing Evidence of Staining: T3-33 (TNFα-expressing) cells: positive control, 5 and 20 μg/mL
Method: Human tonsil, human lung and lymph node with sarcoidosis, and human small intestine with Crohn's disease were also included in the study.
Samples from 1 to 3 separate donors from each of the listed tissues were evaluated. Fresh, unfixed tissue samples were placed into molds, filled with Tissue-Tek® OCT Compound, and frozen at −85 to −70° C. until sectioning. Sections were cut at approximately 5 μm and fixed in acetone for 10 minutes at room temperature. Human blood smears were stored at −85° to −70° C. until fixation and staining. XTMAB16 (primary antibody) was incubated overnight with biotinylated donkey anti-human IgG secondary labeled antibody. XTMAB16 and the control article, hIgG1, were tested at concentration of 5 and 20 μg/mL. Immunopathology was assessed by light microscopy.
The following human tissues were assessed in this cross-reactivity study: • 1. Positive Control: • Cryosections of T3-33 (TNFα-expressing) cells • 2. Negative Control: • Cryosections of Sp2/0-Ag14 cells • 3. Ancillary Controls: • Cryosections of human tonsil (mononuclear cells; 2 donors) • Cryosections of human small intestine with Crohn's disease (mononuclear cells; 1 donor) • Cryosections of human lung with sarcoidosis (mononuclear cells; 1 donor) • Cryosections of human lymph node with sarcoidosis (mononuclear cells; 1 donor)

[5] = tested on: PBMCs from subjects with active pulmonary sarcoidosis; test: In vitro granuloma model of sarcoidosis: granuloma formation (MIPAR area fraction)
Description: as §1

[6] = higher staining concentration (20 μg/mL), rare to occasional cells
[7] = lower staining concentration (5 μg/mL)

## Infliximab: a monoclonal antibody (mAb) targeting TNFα that is being used off-label to treat sarcoidosis
[1]
  increase in predicted forced vital capacity: 2.5%

## XTMAB-16: a chimeric (human/murine) IgG1 mAb directed against TNFα
[2]; 20 mg/kg/dose on Days 1, 15, 29
  arthritis scores compared to vehicle control: statistically significant improvement
[2]; 40 mg/kg/dose on Days 1, 15, 29
  arthritis scores compared to vehicle control: statistically significant improvement
[2]; t test: p>0.05
  arthritis scores, 20 versus 40 mg/kg/dose: no significant differences
[3]
  granuloma cytokine release: significant dose-response effect
[4]; adrenal, bladder, cerebellum, cerebral cortex, cervix, kidney, large intestine, liver, lymph node, lung, striated muscle, nerve, ovary, pancreas, placenta, prostate, parathyroid, skin, small intestine, spleen, stomach, testis, thymus, tonsil, uterus
  Tissues Showing Evidence of Staining: Smooth myocytes: Cytoplasm of vascular and/or intrinsic smooth
[4]; ancillary controls
  Tissues Showing Evidence of Staining: mononuclear cells in human tonsil, small intestine with Crohn's disease, lung with sarcoidosis, lymph node with sarcoidosis: Ancillary control tissues (+)
[4]; binding observed at only the higher concentration in most tissues
  majority of non-mononuclear cell binding: low affinity
[4]; esophagus, Fallopian tube, kidney, lung (bronchioles), pancreas (acini), pituitary, salivary gland, skin (sweat glands), stomach (mucosa)
  Tissues Showing Evidence of Staining: Epithelial cells: Cytoplasm only of epithelial cells stained
[4]; higher concentration
  mononuclear cell staining intensity in normal human tissues: weak to strong or weak to moderate
[4]; [6]
  staining of membrane and cytoplasm of mononuclear cells in human tonsil: weakly to strongly stained
  staining of mononuclear cells in small intestine with Crohn's disease, lung with sarcoidosis, lymph node with sarcoidosis: weakly to strongly stained
[4]; kidney
  Tissues Showing Evidence of Staining: Glomerular tuft cells: Cytoplasm of renal glomerular tuft cells
[4]; lower concentration, versus higher concentration
  mononuclear cell staining in normal human tissues: comparable, reduced, or no staining
[4]; [7]
  staining of mononuclear cells in human tonsil: weak to strong and rare staining
  staining of mononuclear cells in small intestine with Crohn's disease, lung with sarcoidosis, lymph node with sarcoidosis: weak to moderate and rare staining
[4]; lymph node
  Tissues Showing Evidence of Staining: Endothelial cells: Cytoplasm of endothelial cells in the lymph node.
[4]; mammary gland
  Tissues Showing Evidence of Staining: Myoepithelial cells: Membrane and cytoplasm of myoepithelial cells
[4]
  Tissues Showing Evidence of Staining: Sp2/0-Ag14 cells: Negative control cryosections (−)
  Tissues Showing Evidence of Staining: T3-33 (TNFα-expressing) cells: Positive control cells (+)
[4]; listed as XTMAB16
  Tissues Showing Evidence of Staining: Sp2/0-Ag14 cells: did not react specifically
  Tissues Showing Evidence of Staining: T3-33 (TNFα-expressing) cells: weak to strong membrane and cytoplasmic staining
[4]; normal human bladder, cervix, esophagus, large intestine, liver (Kupffer cells), lymph node, lung, pancreas, placenta (Hofbauer cells), parathyroid, salivary gland, skin, small intestine, spleen, stomach, thyroid, thymus, tonsil, uterus
  Tissues Showing Evidence of Staining: Mononuclear cells: stained the membrane and cytoplasm; also recorded: Membrane and cytoplasm of resident, migrating,
[5]
  IC50 for decrease in granuloma area fraction: 5.197 µg/mL
[5]; 30 minutes pre-treatment (XTMAB-16 1 to 40 μg/mL; prednisone 1 to 10 μM), 7 days following PPD
  granuloma formation (area fraction): significantly attenuated; also recorded: significant dose-response effect
[5]; MIPAR area fraction, all subject samples, 7 days after PPD-coated beads
  IC50 for decrease in granuloma area fraction: 5.2 µg/mL
